From ChEMBL document CHEMBL1149541, “Potent macrocyclic antagonists to the motilin receptor presenting novel unnatural amino acids” (Bioorg Med Chem Lett, 2007) come the findings set out here.

The structures appear in SMILES notation.

Assay [1] has as its target T1, Motilin receptor (Homo sapiens, UniProt O43193). Put plainly: Displacement of [125I]motilin from human motilin receptor expressed in CHO cells. It counts as cell-based. Background: Displacement assays read how much labelled ligand stays bound in the presence of the test substance.
The target in assay [2] is T1, Motilin receptor. Put plainly: Antagonist activity against human motilin receptor in aequoscreen cells assessed as inhibition of motilin induced calcium release by aequorin assay. It is filed as functional, cell-based.

T1 sequence (O43193 whole entry): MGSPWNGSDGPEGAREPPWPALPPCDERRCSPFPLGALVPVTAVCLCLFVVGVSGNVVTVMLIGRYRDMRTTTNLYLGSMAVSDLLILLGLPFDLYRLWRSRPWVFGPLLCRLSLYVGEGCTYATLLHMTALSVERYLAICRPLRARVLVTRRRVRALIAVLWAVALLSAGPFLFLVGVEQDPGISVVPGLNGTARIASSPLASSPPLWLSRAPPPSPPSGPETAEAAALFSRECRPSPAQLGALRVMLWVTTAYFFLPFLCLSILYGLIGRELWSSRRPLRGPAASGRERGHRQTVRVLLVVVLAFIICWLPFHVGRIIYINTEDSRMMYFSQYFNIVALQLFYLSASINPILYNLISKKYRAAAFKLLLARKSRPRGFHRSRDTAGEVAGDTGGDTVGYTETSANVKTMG

As usually defined, the Ki is the equilibrium dissociation constant of an inhibitor or competing ligand from its target. Low values mean tighter binding, high ones weaker binding. For `Cc1cnnn1C[C@@H]1NC(=O)[C@@H](C(C)C)NC(=O)[C@@H](Cc2cccc(C(F)(F)F)c2)NCCOc2ccccc2CCCNC1=O`, the affinity in assay [1] corresponds to a Ki of 17 nM.
Usually IC50 stands for the concentration that inhibits the measured activity by half. Regarding `CNC[C@@H]1NC(=O)[C@@H](C(C)C)NC(=O)[C@@H](Cc2ccc(Cl)cc2)NCCOc2ccccc2CCCNC1=O`, the affinity in assay [1] corresponds to a Ki of 31 nM. Also, in assay [2], the IC50 stood at 33 nM.
In assay [1], `CC(C)[C@H]1NC(=O)[C@@H](Cc2ccc(Cl)cc2)NCCOc2ccccc2CCCNC(=O)[C@H](CN=C(N)N)NC1=O` came in with an inhibition constant Ki of 6 nM. This lies in the single-digit nanomolar range.
`CC(C)[C@H]1NC(=O)[C@@H](Cc2cccc(C(F)(F)F)c2)NCCOc2ccccc2CCCNC(=O)[C@H](CN2CCCC2)NC1=O` yielded a Ki in assay [1] of 4.6 nM. For the same compound, the IC50 in assay [2] came out at 2 nM.
Compound `CC(C)[C@H]1NC(=O)[C@@H](Cc2cccc(C(F)(F)F)c2)NCCOc2ccccc2CCCNC(=O)[C@H](CNC(=N)N)NC1=O` had an inhibitory constant (Ki) in assay [1] of 6 nM. Further, in assay [2], the IC50 is 28 nM.
In turn, `CC(C)[C@H]1NC(=O)[C@@H](Cc2cccc(Cl)c2)NCCOc2ccccc2CCCNC(=O)[C@H](Cn2ccnc2)NC1=O` had an inhibition constant Ki in assay [1] of 62 nM.
As to `CC(C)[C@H]1NC(=O)[C@@H](Cc2cccc(C(F)(F)F)c2)NCCOc2ccccc2CCCNC(=O)[C@H](CN)NC1=O`, the Ki in assay [1] turned out to be 15 nM. The half-maximal inhibitory concentration (IC50) in assay [2] was 8 nM.
In assay [1], `CC(C)[C@H]1NC(=O)[C@@H](Cc2cccc(F)c2)NCCOc2ccccc2CCCNC(=O)[C@H](Cc2cscn2)NC1=O` registered an inhibition constant (Ki) of 116 nM.
Still for that read-out and setting: the same measure for `Cc1nnn(C[C@@H]2NC(=O)[C@@H](C(C)C)NC(=O)[C@@H](Cc3cccc(C(F)(F)F)c3)NCCOc3ccccc3CCCNC2=O)c1C`: 23 nM; for `CC(C)[C@H]1NC(=O)[C@@H](Cc2cccc(Cl)c2)NCCOc2ccccc2CCCNC(=O)[C@H](CN)NC1=O`: 64 nM.
Still for that read-out and setting: the same measure for `CC(C)[C@H]1NC(=O)[C@@H](Cc2ccc(O)cc2)NCCOc2ccccc2CCCNC(=O)[C@H](CN)NC1=O`: 171 nM; for `CC(=O)NC[C@@H]1NC(=O)[C@@H](C(C)C)NC(=O)[C@@H](Cc2ccc(O)cc2)NCCOc2ccccc2CCCNC1=O`: 1950 nM.
`CNC[C@@H]1NC(=O)[C@@H](C(C)C)NC(=O)[C@@H](Cc2cccc(C(F)(F)F)c2)NCCOc2ccccc2CCCNC1=O` showed a Ki in assay [1] of 6 nM. The IC50 in assay [2] is 3 nM.
With `CC(C)[C@H]1NC(=O)[C@@H](Cc2cccc(C(F)(F)F)c2)NCCOc2ccccc2CCCNC(=O)[C@H](CNc2ncccn2)NC1=O`, in assay [1], the affinity, expressed as Ki, was 20 nM.
Still for that read-out and setting: with `CC(C)[C@H]1NC(=O)[C@@H](Cc2cccc(Cl)c2)NCCOc2ccccc2CCCNC(=O)[C@H](CCC(=N)N)NC1=O` the figure was 27 nM; with `Cc1nnnn1C[C@@H]1NC(=O)[C@@H](C(C)C)NC(=O)[C@@H](Cc2cccc(C(F)(F)F)c2)NCCOc2ccccc2CCCNC1=O`, 21 nM; with `CC(C)[C@H]1NC(=O)[C@@H](Cc2cccc(Cl)c2)NCCOc2ccccc2CCCNC(=O)[C@H](CCN=C(N)N)NC1=O`, 33 nM.
As to `CC(C)[C@H]1NC(=O)[C@@H](Cc2cccc(Cl)c2)NCCOc2ccccc2CCCNC(=O)[C@H](CN=C2NCCN2)NC1=O`, in assay [1], the Ki is 51 nM.
Same read-out and setting: with `CC(C)[C@H]1NC(=O)[C@@H](Cc2cccc(Cl)c2)NCCOc2ccccc2CCCNC(=O)[C@H](CN/C(N)=N/C#N)NC1=O` the figure was 100 nM; with `CC(C)[C@H]1NC(=O)[C@@H](Cc2ccc(O)cc2)NCCOc2ccccc2CCCNC(=O)[C@H](CCN)NC1=O`, 342 nM.
Still for that read-out and setting: with `CC(C)[C@H]1NC(=O)[C@@H](Cc2cccc(Cl)c2)NCCOc2ccccc2CCCNC(=O)[C@H](CNc2nccs2)NC1=O` the figure was 41 nM.
In assay [1], `CC(C)[C@H]1NC(=O)[C@@H](Cc2cccc(Cl)c2)NCCOc2ccccc2CCCNC(=O)[C@H](Cn2cccn2)NC1=O` had an inhibition constant Ki of 18 nM. For the same compound, in assay [2], the IC50 was determined as 56 nM.
For the compound `CC(C)NC[C@@H]1NC(=O)[C@@H](C(C)C)NC(=O)[C@@H](Cc2ccc(O)cc2)NCCOc2ccccc2CCCNC1=O`, the Ki in assay [1] worked out at 376 nM.
Regarding `CC(C)[C@H]1NC(=O)[C@@H](Cc2ccc(Cl)cc2)NCCOc2ccccc2CCCNC(=O)[C@H](CN(C)C)NC1=O`, the affinity in assay [1], expressed as Ki, was 16 nM. Against the preceding compound, the Ki is about 24-fold lower.
`CC(C)[C@H]1NC(=O)[C@@H](Cc2cccc(Cl)c2)NCCOc2ccccc2CCCNC(=O)[C@H](CN(C)C)NC1=O` registered an inhibition constant (Ki) in assay [1] of 27 nM. Moreover, the IC50 in assay [2] is 95 nM.
Compound `CC(C)[C@H]1NC(=O)[C@@H](Cc2cccc(Cl)c2)NCCOc2ccccc2CCCNC(=O)[C@H](CNC2=NCCCN2)NC1=O` returned an inhibition constant (Ki) in assay [1] of 87 nM.
On the same count and under the same terms, with `CC(C)[C@H]1NC(=O)[C@@H](Cc2cccc(Cl)c2)NCCOc2ccccc2CCCNC(=O)[C@H](CN=C(N)N)NC1=O` the figure was 57 nM; with `CC(C)[C@H]1NC(=O)[C@@H](Cc2ccc(Cl)cc2)NCCOc2ccccc2CCCNC(=O)[C@H](CN)NC1=O`, 60 nM.
The same measure, in the same setting: with `CC(C)[C@H]1NC(=O)[C@@H](Cc2ccc(Cl)cc2)NCCOc2ccccc2CCCNC(=O)[C@H](CNC(N)=O)NC1=O` the figure was 543 nM.
In turn, `CC(C)[C@H]1NC(=O)[C@@H](Cc2ccc(O)cc2)NCCOc2ccccc2/C=C/CNC(=O)[C@H](CCCN)NC1=O` yielded a Ki in assay [1] of 889 nM.
